Data taken from patent publication US20150335016A1, “Herbicidal Composition Comprising a Cornexistin” (BASF SE, priority 2012, published 2015).

Legend:
Assay in all cases: Greenhouse post-emergence herbicidal test
Assay type in all cases: in vivo
[1] = test system: ERICA (Erigeron canadensis)
Procedure: (§1) The culture containers used were plastic pots containing loamy sand with approximately 2-3.0% of organic matter. The seeds of the test plants were sown separately for each species.
(§2) For the post-emergence treatment, the test plants were grown to a plant height of from 3 to 15 cm, depending on the plant habit, and only then treated with the active compounds which had been suspended or emulsified in water. To this end, the test plants were either sown directly, and grown in the same containers, or they were first grown separately as seedlings and transplanted into the test containers a few days prior to treatment.
(§3) Depending on the species, the plants were kept at 10-25° C. and 20-35° C., respectively.
(§4) The test period extended over 2 to 4 weeks. During this time, the plants were tended and their response to the individual treatments was evaluated.
(§5) Evaluation was carried out using a scale from 0 to 100. 100 means no emergence of the plants, or complete destruction of at least the above-ground parts, and 0 means no damage or normal course of growth. A good herbicidal activity is given at values of at least 70, and very good herbicidal activity is given at values of at least 85.
(§6) In the examples below, using the method of S. R. Colby (1967) “Calculating synergistic and antagonistic responses of herbicide combinations”, Weeds 15, p. 22ff., the value E, which is expected if the activity of the individual active compounds is only additive, was calculated.
(§7) where • X=percent activity using active compound A at an application rate a; • Y=percent activity using active compound B at an application rate b; • E=expected activity (in %) by A+B at application rates a+b.
(§8) If the value found experimentally is higher than the value E calculated according to Colby, a synergistic effect is present.
(§9) For preparation of the mixtures herbicides A were used in form of an aqueous solution comprising 22.5% by weight of the respective herbicide A. The herbicides B were used in form of the respective commercially available formulations as identified below. If appropriate, the adjuvant DASH® HC was added to the mixtures.
(§10) The respective mixtures of active ingredients were introduced into the spray liquor used for applying the active compound. In the examples, the solvent used was water.

[2] = test system: ABUTH (Abutilon theophrasti)
Procedure: as §1, §2, §3, §4, §5, §6, §7, §8, §9, §10

[3] = test system: AMBEL (Ambrosia artemisiifolia)
Procedure: as §1, §2, §3, §4, §5, §6, §7, §8, §9, §10

[4] = test system: POLPE (Polygonum persicaria)
Procedure: as §1, §2, §3, §4, §5, §6, §7, §8, §9, §10

[5] = test system: BRAPP (Urochloa platyphylla)
Procedure: as §1, §2, §3, §4, §5, §6, §7, §8, §9, §10

[6] = test system: COMBE (Commelina benghalensis)
Procedure: as §1, §2, §3, §4, §5, §6, §7, §8, §9, §10

SETFA (Setaria faberi) = test system: SETFA (Setaria faberi)
Procedure: as §1, §2, §3, §4, §5, §6, §7, §8, §9, §10

[7] = test system: AMARE (Amaranthus retroflexus)
Procedure: as §1, §2, §3, §4, §5, §6, §7, §8, §9, §10

[8] = test system: CHEAL (Chenopodium album)
Procedure: as §1, §2, §3, §4, §5, §6, §7, §8, §9, §10

[9] = test system: DIGSA (Digitaria sanguinales)
Procedure: as §1, §2, §3, §4, §5, §6, §7, §8, §9, §10

[10] = test system: PANMI (Panicum miliaceum L.)
Procedure: as §1, §2, §3, §4, §5, §6, §7, §8, §9, §10

[11] = Example 1, post-emergence, B.17 62.5 g/ha a.i.
[12] = Example 4, post-emergence, B.30 12.5 g/ha a.i.
[13] = Example 2, post-emergence, B.49 75 g/ha a.i.
[14] = Example 5, post-emergence, B.55 2.5 g/ha a.i.
[15] = Example 1, post-emergence; a1) 125 g/ha a.i.
[16] = Example 2, post-emergence; a1) 62.5 g/ha a.i.
[17] = Example 5, post-emergence; a1) 31.25 g/ha a.i.
[18] = Example 4, post-emergence; a1) 125 g/ha a.i.

COCc1cnc(C2=NC(C)(C(C)C)C(=O)N2)c(C(=O)O)c1 (stereo not shown) [B.3, imazamox]
herbicidal activity against ERICA found ([1]; Example 3, post-emergence, heading: +1% by weight DASH HC, B.3 9 g/ha a.i.): 90%

CC(C)N1C(=O)c2ccccc2NS1(=O)=O [B.17, bentazone]
herbicidal activity against ABUTH found [2, 11]: 40%
herbicidal activity against AMBEL found [3, 11]: 30%
herbicidal activity against ERICA found [1, 11]: 70%
herbicidal activity against POLPE found [4, 11]: 55%

Cn1nc(C(F)(F)F)c(CS(=O)(=O)C2=NOC(C)(C)C2)c1OC(F)F [B.30, pyroxasulfone]
herbicidal activity against BRAPP found [5, 12]: 50%
herbicidal activity against COMBE found [6, 12]: 45%
herbicidal activity against SETFA found (SETFA (Setaria faberi); [12]): 40%

CCc1cccc(CC)c1N(COC)C(=O)CCl [B.49, alachlor]
herbicidal activity against AMARE found [7, 13]: 30%
herbicidal activity against CHEAL found [8, 13]: 0%
herbicidal activity against DIGSA found [9, 13]: 40%
herbicidal activity against PANMI found [10, 13]: 45%

COC(=O)c1ccccc1S(=O)(=O)NC(=O)Nc1nc(C)nc(OC)n1 [B.55, metsulfuron-methyl]
herbicidal activity against AMBEL found [3, 14]: 75%
herbicidal activity against CHEAL found [8, 14]: 40%

C/C=C1/CC2=C(C(=O)OC2=O)[C@H](CCC)[C@H](O)C(=O)C[C@@H]1O [a1), cornexistin]
herbicidal activity against ABUTH found [2, 15]: 50%
herbicidal activity against AMARE found [7, 16]: 50%
herbicidal activity against AMBEL found [3, 15]: 65%
herbicidal activity against AMBEL found [3, 17]: 80%
herbicidal activity against BRAPP found [5, 18]: 50%
herbicidal activity against CHEAL found [8, 16]: 90%
herbicidal activity against CHEAL found [8, 17]: 70%
herbicidal activity against COMBE found [6, 18]: 55%
herbicidal activity against DIGSA found [9, 16]: 55%
herbicidal activity against ERICA found [1, 15]: 40%
herbicidal activity against ERICA found ([1]; Example 3, post-emergence, heading: +1% by weight DASH HC; a1) 62.5 g/ha a.i.): 60%
herbicidal activity against PANMI found [10, 16]: 80%
herbicidal activity against POLPE found [4, 15]: 60%
herbicidal activity against SETFA found (SETFA (Setaria faberi); [18]): 80%
